Results reported in ChEMBL document CHEMBL2029245, “Binding evaluation of fragment-based scaffolds for probing allosteric enzymes” (J Med Chem, 2012).

Legend:
[1] = molecular target: T1, Glycogen phosphorylase, muscle form (Oryctolagus cuniculus, UniProt P00489); assay: Binding affinity to rabbit muscular GPa by NMR binding assay
T1 sequence (P00489 whole entry): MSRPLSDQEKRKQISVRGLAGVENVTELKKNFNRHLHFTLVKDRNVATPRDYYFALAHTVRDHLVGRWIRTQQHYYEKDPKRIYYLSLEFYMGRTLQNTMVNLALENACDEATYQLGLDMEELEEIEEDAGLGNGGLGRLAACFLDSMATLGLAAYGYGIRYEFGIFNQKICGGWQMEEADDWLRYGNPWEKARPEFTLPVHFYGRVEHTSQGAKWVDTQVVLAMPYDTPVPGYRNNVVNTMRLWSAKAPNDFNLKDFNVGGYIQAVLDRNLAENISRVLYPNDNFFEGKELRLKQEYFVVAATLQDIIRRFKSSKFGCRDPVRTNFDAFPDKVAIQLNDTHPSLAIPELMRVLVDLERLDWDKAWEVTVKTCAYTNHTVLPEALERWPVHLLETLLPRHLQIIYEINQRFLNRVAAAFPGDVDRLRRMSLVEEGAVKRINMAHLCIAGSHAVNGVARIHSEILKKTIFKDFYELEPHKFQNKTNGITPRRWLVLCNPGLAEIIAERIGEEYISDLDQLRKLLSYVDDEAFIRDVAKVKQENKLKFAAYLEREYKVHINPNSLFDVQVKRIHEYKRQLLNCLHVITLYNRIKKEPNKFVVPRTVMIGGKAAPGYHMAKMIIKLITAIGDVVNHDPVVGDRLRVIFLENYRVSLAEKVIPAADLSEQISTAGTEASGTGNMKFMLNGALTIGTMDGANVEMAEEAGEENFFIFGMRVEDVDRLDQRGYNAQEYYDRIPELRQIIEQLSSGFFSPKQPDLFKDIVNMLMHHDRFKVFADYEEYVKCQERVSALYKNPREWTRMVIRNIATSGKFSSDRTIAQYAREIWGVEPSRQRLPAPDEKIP

[2] = molecular target: T1, Glycogen phosphorylase, muscle form
Description: Binding affinity to rabbit muscular GPb by NMR binding assay

[3] = molecular target: T2, Glycogen phosphorylase, liver form (Homo sapiens, UniProt P06737); assay: Binding affinity to human liver GPa by NMR binding assay
T2 sequence (P06737 whole entry): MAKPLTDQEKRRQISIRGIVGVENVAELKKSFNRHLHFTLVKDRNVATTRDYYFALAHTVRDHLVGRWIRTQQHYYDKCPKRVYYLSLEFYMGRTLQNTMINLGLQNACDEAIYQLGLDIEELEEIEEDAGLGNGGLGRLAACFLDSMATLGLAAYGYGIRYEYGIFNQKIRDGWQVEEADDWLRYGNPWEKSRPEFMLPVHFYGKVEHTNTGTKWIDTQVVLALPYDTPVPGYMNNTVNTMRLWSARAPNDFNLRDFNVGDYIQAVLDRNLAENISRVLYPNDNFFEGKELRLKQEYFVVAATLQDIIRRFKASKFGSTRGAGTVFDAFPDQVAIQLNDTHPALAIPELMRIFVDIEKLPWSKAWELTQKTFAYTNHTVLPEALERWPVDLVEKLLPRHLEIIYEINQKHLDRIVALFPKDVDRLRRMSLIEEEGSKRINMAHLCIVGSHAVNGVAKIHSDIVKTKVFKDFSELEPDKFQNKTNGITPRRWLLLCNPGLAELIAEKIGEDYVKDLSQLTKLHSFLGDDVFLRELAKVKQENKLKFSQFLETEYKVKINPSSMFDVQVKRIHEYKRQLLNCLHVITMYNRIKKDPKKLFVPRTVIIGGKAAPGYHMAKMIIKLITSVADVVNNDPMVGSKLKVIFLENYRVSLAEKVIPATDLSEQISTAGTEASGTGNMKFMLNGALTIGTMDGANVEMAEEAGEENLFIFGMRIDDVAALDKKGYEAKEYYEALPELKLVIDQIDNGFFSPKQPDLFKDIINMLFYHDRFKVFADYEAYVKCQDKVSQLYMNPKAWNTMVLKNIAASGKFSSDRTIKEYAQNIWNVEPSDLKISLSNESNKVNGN

Row | Compound | IC50 [1] | IC50 [2] | IC50 [3]
1 | Cc1cc(F)c(Sc2nccn2C)cc1C(=O)Nc1cccc(C#N)c1 | 9.9 µM | – | –
2 | Nc1ccccc1C(=O)Nc1ccccc1Oc1ccc(C(=O)O)c(C(=O)O)c1 | – | 0.9 µM | 1.3 µM
3 | O=C(NC(=O)c1cc2ccccc2[nH]1)N[C@@H]1O[C@H](CO)[C@@H](O)[C@H](O)[C@H]1O | – | 4 µM | –
4 | COCCNC(=O)c1c[nH]c2ccc(Cl)cc12 | – | – | 12.5 µM
5 | O=C(CN1CCN(c2ccccc2)CC1)Nc1nccs1 | 96.9 µM | – | –
6 | O=C(O)c1ccccc1-n1cc(C(=O)O)c(=O)c2cc(Cc3c(F)cc(F)cc3Cl)c(Cl)cc21 | – | 0.024 µM | –
7 | O=C1NCC(O)NC12O[C@H](CO)[C@@H](O)[C@H](O)[C@H]2O (stereo not given in full) | – | 59.8 µM | –
8 | Cc1cn([C@@H]2O[C@H](CO)[C@@H](O)[C@H](O)[C@H]2O)c(=O)[nH]c1=O | – | 6.6 µM | –
9 | Cc1cc(F)c(Sc2nccn2C)cc1C(=O)Nc1cccc(N)c1 | 2.7 µM | – | –
